Measured values published in PubChem BioAssay (NCI).
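Cultured in 96-well plates, cells were exposed to test compound for 48 hours across five concentrations. TGI: concentration producing complete growth inhibition.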

Columns and labels:
Assay in all cases: NCI tumour cell line growth inhibition, 48 h
SN12K1 renal = test system: SN12K1 renal
DMS 114 small cell lung = test system: DMS 114 small cell lung
P388/ADR leukemia = test system: P388/ADR leukemia
DMS 273 small cell lung = test system: DMS 273 small cell lung
XF 498 CNS = test system: XF 498 CNS
P388 leukemia = test system: P388 leukemia
SNB-78 CNS = test system: SNB-78 CNS
M19-MEL melanoma = test system: M19-MEL melanoma
HOP-18 NSCLC = test system: HOP-18 NSCLC
RXF-631 renal = test system: RXF-631 renal

In the case of `O=C1C=CC2OC(c3ccccc3)C(O)C2O1` (stereo not drawn), the TGI (SN12K1 renal) is reported as 14.9 µM, the TGI (DMS 114 small cell lung) is reported as 14.7 µM and the TGI (P388/ADR leukemia) is reported as 7.63 µM. For the same molecule, the TGI (DMS 273 small cell lung) was 18.2 µM, the TGI (XF 498 CNS) was 10.1 µM and the TGI (P388 leukemia) was 6.53 µM. For the same molecule, the TGI (SNB-78 CNS) was 46.3 µM, the TGI (M19-MEL melanoma) was 30.8 µM and the TGI (HOP-18 NSCLC) was 1.81 µM.

`O=C(Nc1ccc(Cl)cc1C(F)(F)F)C(=O)C1CCCS1(=O)=O` (stereo not drawn) showed a TGI (DMS 114 small cell lung) of over 100 µM, a TGI (XF 498 CNS) of over 100 µM and a TGI (SNB-78 CNS) of over 100 µM. The TGI (M19-MEL melanoma) was over 100 µM and the TGI (HOP-18 NSCLC) was over 100 µM.

`CCOC(=O)CC1COc2ccc3c(c21)OCO3` (stereo not drawn) gave a TGI (DMS 114 small cell lung) of over 100 µM, a TGI (DMS 273 small cell lung) of over 100 µM and a TGI (XF 498 CNS) of over 100 µM. The TGI (SNB-78 CNS) was over 100 µM, the TGI (M19-MEL melanoma) was over 100 µM and the TGI (HOP-18 NSCLC) was over 100 µM.

With `CC(CCC[C@H](C)CO)[C@H]1[C@@H](O)C(O)C2[C@@H]3C[C@@H](O)C4(O)C[C@@H](O)CC[C@]4(C)C3CC[C@@]21C` (stereo partly drawn) the TGI (DMS 114 small cell lung) was over 100 µM, the TGI (DMS 273 small cell lung) was over 100 µM and the TGI (XF 498 CNS) was over 100 µM. The TGI (SNB-78 CNS) was over 100 µM, the TGI (M19-MEL melanoma) was over 100 µM and the TGI (HOP-18 NSCLC) was over 100 µM.

With `CC(=O)OC(CC1(C)C(C)CCC23COC(=O)C2=CCCC31)c1ccoc1` (stereo not drawn) the TGI (DMS 114 small cell lung) was over 100 µM, the TGI (XF 498 CNS) was 44.6 µM and the TGI (SNB-78 CNS) was 70.4 µM. For the same molecule, the TGI (M19-MEL melanoma) was over 100 µM.

With `CCOC(=O)Cn1c2ccccc2c(=O)c2cc(C)c(C)c(C#N)c21` the TGI (RXF-631 renal) was over 100 µM, the TGI (DMS 273 small cell lung) was over 100 µM and the TGI (XF 498 CNS) was 97.2 µM. The TGI (SNB-78 CNS) was over 100 µM, the TGI (M19-MEL melanoma) was over 100 µM and the TGI (HOP-18 NSCLC) was over 100 µM.

Work on `CCCCCCCCCCCC(=O)OC[C@H](C[As](=O)(O)O)OC(=O)CCCCCCCCCCC` yielded a TGI (DMS 114 small cell lung) of 4.77 µM, a TGI (DMS 273 small cell lung) of 15 µM and a TGI (XF 498 CNS) of 24 µM. The TGI (SNB-78 CNS) was 9.45 µM, the TGI (M19-MEL melanoma) was 22 µM and the TGI (HOP-18 NSCLC) was 20.3 µM.

Molecule `C=CCNC(=S)N1CC(C)C(=O)Nc2cc(Cl)ccc21` (stereo not drawn) has a TGI (DMS 114 small cell lung) of over 100 µM, a TGI (DMS 273 small cell lung) of over 100 µM and a TGI (SNB-78 CNS) of over 100 µM. It also gave a TGI (M19-MEL melanoma) of over 100 µM and a TGI (HOP-18 NSCLC) of over 100 µM.

Work on `COc1cc2c3cc1Oc1c(O)c(OC)cc4c1C(Cc1ccc(O)c(c1)Oc1ccc(cc1)CC3N(C)CC2)N(C)CC4` (stereo not drawn) yielded a TGI (DMS 114 small cell lung) of 44.8 µM, a TGI (DMS 273 small cell lung) of 30.6 µM and a TGI (XF 498 CNS) of 33.5 µM. The TGI (SNB-78 CNS) was 50.7 µM, the TGI (M19-MEL melanoma) was 43.8 µM and the TGI (HOP-18 NSCLC) was 45 µM.

`CCOC(=O)C(=O)C=P(c1ccccc1)(c1ccccc1)c1ccccc1` gave a TGI (RXF-631 renal) of over 100 µM, a TGI (DMS 114 small cell lung) of over 100 µM and a TGI (DMS 273 small cell lung) of over 100 µM. It also gave a TGI (SNB-78 CNS) of over 100 µM, a TGI (M19-MEL melanoma) of over 100 µM and a TGI (HOP-18 NSCLC) of over 100 µM.

Work on `Cc1c[n+]2c3ccccc3c3ccccc3c2s1` yielded a TGI (DMS 114 small cell lung) of 16.1 µM, a TGI (DMS 273 small cell lung) of 20.1 µM and a TGI (XF 498 CNS) of 18 µM. For the same molecule, the TGI (SNB-78 CNS) was over 29.5 µM, the TGI (M19-MEL melanoma) was 18.3 µM and the TGI (HOP-18 NSCLC) was over 100 µM.

With `COc1cc2c(c(OC)c1OC)-c1ccc(SC)c(=O)cc1C(CC(=O)Oc1cccc([N+](=O)[O-])c1)C2` (stereo not drawn) the TGI (RXF-631 renal) was 12.8 µM, the TGI (DMS 114 small cell lung) was 3.95 µM and the TGI (DMS 273 small cell lung) was over 100 µM. For the same molecule, the TGI (XF 498 CNS) was 20.3 µM, the TGI (SNB-78 CNS) was over 100 µM and the TGI (M19-MEL melanoma) was over 100 µM. It also gave a TGI (HOP-18 NSCLC) of over 100 µM.

In the case of `CNC(=O)NCNC(=O)NC`, the TGI (RXF-631 renal) is reported as over 100 µM, the TGI (DMS 114 small cell lung) is reported as over 100 µM and the TGI (DMS 273 small cell lung) is reported as over 100 µM. For the same molecule, the TGI (SNB-78 CNS) was over 100 µM, the TGI (M19-MEL melanoma) was over 100 µM and the TGI (HOP-18 NSCLC) was over 100 µM.

For `CCC(C)C(N)C(=O)NC(CC(N)=O)C(=O)NC(CC(C)C)C(=O)NC(CCCCN)C(=O)NC(C)C(=O)NC(CC(C)C)C(=O)NC(C)C(=O)NC(C)C(=O)NC(CC(C)C)C(=O)NC(C)C(=O)NC(CCCCN)C(=O)NC(CCCCN)C(=O)NC(C(=O)NC(CC(C)C)C(N)=O)C(C)CC` (stereo not drawn), the TGI (RXF-631 renal) was 19.5 µM, the TGI (DMS 114 small cell lung) was 28.1 µM and the TGI (DMS 273 small cell lung) was 17 µM. It also gave a TGI (SNB-78 CNS) of 29.2 µM, a TGI (M19-MEL melanoma) of 25.9 µM and a TGI (HOP-18 NSCLC) of 13.5 µM.

With `N#CCc1c(-c2ccccc2)n(S(=O)(=O)c2ccccc2)c2ccccc12` the TGI (DMS 114 small cell lung) was over 100 µM, the TGI (DMS 273 small cell lung) was over 100 µM and the TGI (XF 498 CNS) was over 100 µM. The TGI (M19-MEL melanoma) was over 100 µM.
